Experimental data reported in article PMC6892751, “Novel Angiotensin-Converting Enzyme-Inhibitory Peptides From Fermented Bovine Milk Started by Lactobacillus helveticus KLDS.31 and Lactobacillus casei KLDS.105: Purification, Identification, and Interaction Mechanisms” (Frontiers in Microbiology, 2019).
Read-outs that look alike come from different tables or passages of the source. Where no end group is shown, it is not given here.

How the values were obtained:
[1] = biological target: T1, angiotensin I-converting enzyme (ACE) (Oryctolagus cuniculus, UniProt P12822); assay: ACE-inhibitory activity determination by HPLC (hippuric acid from Hip-His-Leu); format: biochemical; conditions: HPLC of hippuric acid, Hip-His-Leu 5 mM, sodium borate buffer 50 mM pH 8.1, ACE 0.1 U/mL, 37°C 60 min, mean ± SD, triplicate, read-out: IC50 of ACE inhibition
T1 sequence (P12822 34-1310): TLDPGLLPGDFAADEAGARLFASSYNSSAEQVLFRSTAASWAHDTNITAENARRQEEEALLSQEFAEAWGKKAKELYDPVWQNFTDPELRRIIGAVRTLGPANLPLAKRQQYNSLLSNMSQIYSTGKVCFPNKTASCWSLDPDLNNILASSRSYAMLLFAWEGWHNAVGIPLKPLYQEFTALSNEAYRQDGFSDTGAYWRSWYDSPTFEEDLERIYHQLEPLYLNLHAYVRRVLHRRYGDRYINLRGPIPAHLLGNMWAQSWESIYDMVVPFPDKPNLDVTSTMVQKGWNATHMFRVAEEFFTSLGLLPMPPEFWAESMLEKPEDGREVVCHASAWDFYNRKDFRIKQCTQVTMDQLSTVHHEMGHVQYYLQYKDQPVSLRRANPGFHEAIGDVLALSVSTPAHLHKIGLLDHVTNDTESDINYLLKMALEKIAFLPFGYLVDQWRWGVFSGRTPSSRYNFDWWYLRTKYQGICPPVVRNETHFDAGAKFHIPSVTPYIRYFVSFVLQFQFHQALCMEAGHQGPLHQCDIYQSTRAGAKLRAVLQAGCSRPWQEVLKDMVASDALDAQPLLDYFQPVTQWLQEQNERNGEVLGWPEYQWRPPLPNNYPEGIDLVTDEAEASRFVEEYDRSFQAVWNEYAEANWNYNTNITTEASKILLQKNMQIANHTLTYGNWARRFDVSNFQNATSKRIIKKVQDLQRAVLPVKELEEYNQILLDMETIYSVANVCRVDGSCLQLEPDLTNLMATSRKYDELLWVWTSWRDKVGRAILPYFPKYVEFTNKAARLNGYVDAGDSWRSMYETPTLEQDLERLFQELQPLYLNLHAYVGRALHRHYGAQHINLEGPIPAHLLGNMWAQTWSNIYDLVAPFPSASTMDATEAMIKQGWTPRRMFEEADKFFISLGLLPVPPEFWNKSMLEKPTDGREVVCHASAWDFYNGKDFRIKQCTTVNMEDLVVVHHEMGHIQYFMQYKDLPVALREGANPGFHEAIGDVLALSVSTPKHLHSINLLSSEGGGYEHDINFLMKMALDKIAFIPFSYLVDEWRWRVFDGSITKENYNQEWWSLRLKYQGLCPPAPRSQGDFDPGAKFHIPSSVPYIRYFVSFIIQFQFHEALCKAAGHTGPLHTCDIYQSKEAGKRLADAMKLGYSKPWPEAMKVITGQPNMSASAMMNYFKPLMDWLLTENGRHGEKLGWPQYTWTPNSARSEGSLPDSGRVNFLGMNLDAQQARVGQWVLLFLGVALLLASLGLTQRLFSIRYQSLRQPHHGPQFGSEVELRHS
Method: The determination was measured by HPLC, with slight changes according to the procedure described by [Gonzalez-Gonzalez et al. (2011)]. The sample (20 μL) was dissolved in 120 μL Hip-His-Leu (5 mM) with sodium borate buffer (50 mM, pH 8.1). After incubation at 37°C for 3 min, the ACE solution (0.1 U/mL, 10 μL) was added to the sample and incubated for 60 min at the above temperature. Subsequently, 0.15 mL HCl (1 M) was used to terminate the reaction. The content of hippuric acid (HA) produced by reaction was determined by reverse-phase high-performance liquid chromatography (RP-HPLC, Waters Corporation, United States). A symmetry C18 Column (3.9 × 150 mm, 5 μm, Waters, United States) was used with the Waters HPLC model Alliance 2690 system, which included an ultraviolet detector (Waters, United States). […] Flow rate was 0.8 mL/min. The sample (6 μL) was filtered (0.45 μm filter) and measured at 228 nm. A standard curve was generated using concentrations of standard HA and peak areas. The ACE-inhibitory activity was determined as:
ACEinhibitoryactivity(%)=[HA]control-[HA]sample/[HA]control×100%
The concentration of inhibitor that inhibits 50% ACE activity is defined as IC50 value.

ACE = conditions: read-out: IC50 of ACE inhibition, cited from earlier work
Source text: ACE-inhibitory peptides from bovine milk protein have been described previously ([De Leo et al., 2009]). These bioactive peptides are typically produced by enzymatic hydrolysis, microbial fermentation, or genetic engineering. In particular, more attention has been focused on microbial fermentation as the food grade bacteria, such as lactic acid bacteria (LAB), provide enriched food bioactive substances ([Castellano et al., 2013]). Furthermore, the hydrolytic processing of milk protein through the action of chymosin and Lactobacillus casei can also improve cheese flavor ([Lemieux et al., 2010]) ...

[2] = peptides from low-fat milk fermented with several LAB, ref Chen et al. (2007)

In the case of KPAGDF [Lys-Pro-Ala-Gly-Asp-Phe], the IC50 [1] is reported as 77.5 ± 2.74 µM.

KKAAMAM [Lys-Lys-Ala-Ala-Met-Ala-Met] gave an IC50 [1] of 189 ± 4.61 µM.

With KAALSGM [Lys-Ala-Ala-Leu-Ser-Gly-Met] the IC50 [1] was 110 ± 3.87 µM.

For Gly-Thr-Trp, the IC50 (ACE; [2]) is given as 464 µM.

In the case of “RLSFDP [literature peptide from β-lactoglobulin hydrolysate (f148-153), sour milk fermented with Lb. helveticus LB10]”, the IC50 (ACE; from sour milk fermented with Lb. helveticus LB10, β-lactoglobulin hydrolysate (f148-153), ref Pan and Guo (2010)) is listed as 177 µM.

For Gly-Val-Trp, the IC50 (ACE; [2]) is given as 240 µM.

Substance “LDHVPGGAR [Leu-Asp-His-Val-Pro-Gly-Gly-Ala-Arg]” has an IC50 [1] of 201 ± 5.24 µM.
